Among the data in patent US11872311B2, “Metal bisphosphonate nanoparticles for anti-cancer therapy and imaging and for treating bone disorders” (The University of North Carolina at Chapel Hill, priority 2011, dated 2024) are IC50 values, retold here.

Assay type in all cases: cell-based
For experiment [1], the system named is NCI-H460 large lung cancer cells. As to the kind of experiment: Cancer cell growth inhibition assay, trypan blue exclusion (Ca-Pam particles). The settings on record: Homo sapiens, 48 h, pamidronate concentrations. The source says:
NCI-H460 large lung cancer cells (American Type Culture Collection (ATCC)# HTB-177) were purchased from the Tissue Culture Facility of Lineberger Comprehensive Cancer Center at the University of North Carolina at Chapel Hill. The cell line was maintained as a suspension in RPMI-1640 growth medium (Cellgro®, Mediatech, Inc., Manassas, Virginia., United States of America) supplemented with 10% fetal bovine serum (Sigma, St. Louis, Missouri., United States of America) and 2% penicillin-streptomycin (Sigma, St. Louis, Missouri., United States of America).
Confluent H460 cells were counted from the culture flask using a hematocytometer. Cells were plated in 6-well plates at a cell density of 5×10^4 cells/well in 3 mL RPMI-1640 complete growth medium. The cells were incubated at 37° C. and 5% CO2 overnight. Pamidronate, and particle dispersions of Ca-Pam, lipid coated Ca-Pam, and AA-lipid coated Ca-Pam (80 μM) in RPMI-1640 media and additional media were added to wells, resulting in pamidronate concentrations (μM) of 0, 5, 10, 20, 40, and 80. Cells were incubated (37° C., 5% CO2) with free pamidronate or particle for 48 h. Viability was determined by the trypan blue exclusion assay.

Experiment [2] concerns H460 human lung carcinoma cells. As to the kind of experiment: Cell viability assay, trypan blue cell counts (A-Ca-Zol particles). The settings on record: NCI-H460, 48 hrs. As to the method: Four cell culturing plates were set-up for cell viability assays. In each well, 100,000 H460 human lung carcinoma cells were placed in each well with 3 mL of RPMI media (supplemented with 10% FBS and 2% PenStrep) and were allowed to incubate overnight for cell adhesion at 37° C. at 5% CO2.
20 μM stock solutions of zolendrate, bare particle (i.e., as synthesized A-Ca-Zol), RGD targeted particle and anisamide targeted particle were prepared so that treatment curves of 0 μM, 1 μM, 5 μM, 10 μM, 20 μM and […] were established in RPMI media. After individual treatment, the plates were placed back in the incubator for 48 hrs.
After incubation, media and treatment was removed from each well and cells were washed 2× with 1 mL of PBS. 1 mL of trypsin was added to each well and placed back in the incubator for 3 min. The cells and trypsin were then transferred to centrifuge tubes and centrifuged for 3 min and the cell pellet was then redistributed in 1 mL of media. Cell counts were taken using 20 μL of cells and 20 μL trypan blue on a hemocytometer.

The test system of experiment [3] is MCF-7 human breast cancer cells. As to the kind of experiment: Cell viability, trypan blue exclusion (A-Mn-Zol particles). The settings on record: MCF7, MCF-7 cells, 48 h, zoledronate concentrations. The source says: (§1) NCI-H460 large lung cancer cells (ATCC # HTB-177) and MCF-7 human breast cancer cells (ATCC # HTB-22) were purchased from the Tissue Culture Facility of Lineberger Comprehensive Cancer Center at the University of North Carolina at Chapel Hill. The cell line was maintained as a suspension in RPMI-1640 growth medium (Cellgro®, Mediatech, Inc., Manassas, Virginia., United States of America) supplemented with 10% fetal bovine serum (Sigma, St. Louis, Missouri., United States of America) and 2% penicillin-streptomycin (Sigma, St. Louis, Missouri, United States of America).
Confluent MCF-7 cells were trypsinized (trypsin-EDTA, Sigma, St. Louis, Missouri, United States of America) and cell density was obtained from a hemocytometer. 6-well plates were seeded with 5.0×10^4 cells/well and a total of 3 mL media. The plates were incubated at 37° C. and 5% CO2 overnight. Amounts of zoledronate, liposomes, and particle dispersions in RPMI-1640 medium and additional media (5% phosphate buffered saline, Cellgro®, Mediatech, Inc., Manassas, Virginia., United States of America) were added to wells resulting in zoledronate concentrations of 0, 2.5, 5, 10, 20, and 40 μM. The plates were incubated at 37° C. and 5% CO2 for 48 h and viability was determined via the trypan blue exclusion assay. […]

Experiment [4] deals with human PC-3 prostate adenocarcinoma cells. As to the kind of experiment: Cell viability assay in PC-3 cells (A-Ca-Zol particles). As to the method:
In addition, a cell viability assay was also performed in a similar manner, but using human PC-3 prostate adenocarcinoma cells. Cell viability results for PC-3 cells treated with either zoledronate or as synthesized A-Ca-Zol nanoparticles are provided in FIG. 24. The IC50's are estimated to be 3.1, and 0.8 for zoledronate and as-synthesized A-Ca-Zol, respectively.

The test system of experiment [5] is NCI-H460 large lung cancer cells. As to the kind of experiment: Cell viability, trypan blue exclusion (Mn-Zol particles). The settings on record: Homo sapiens, 48 h, zoledronate concentrations.
Source text: as §1
Confluent H460 cells were counted from the culture flask using a hematocytometer. Cells were plated in 6-well plates at a cell density of 5×10^4 cells/well in 3 mL RPMI-1640 complete growth medium. The cells were incubated at 37° C. and 5% CO2 overnight. Zoledronate, bare liposome, and particle dispersions of Mn-Zol and lipid coated Mn-Zol (20 μM) in RPMI-1640 media and additional media were added to wells, resulting in zoledronate concentrations (μM) of 0, 1.0, 2.5, 5, 10, and 20. Cells were incubated (37° C., 5% CO2) with free zoledronate, liposome, or particle for 48 h. Viability was determined by the trypan blue exclusion assay.

Experiment [6] has as its system MCF-7 cells. As to the kind of experiment: Cytotoxicity assay against MCF-7 cells (FIG. 35B). The note with it: Homo sapiens, MCF7. The source says: (§2) FIGS. 35A and 35B present data from cytotoxicity assays of Mn-Zol@DOPA, PEG-A-Zn-Zol, and AA-PEG-A-Mn-Zol particles against ASPC-1 (FIG. 35A) and MCF-7 cells (FIG. 35B).
Experiment [7] has as its system ASPC-1. As to the kind of experiment: Cytotoxicity assay against ASPC-1 (FIG. 35A). The note with it: Homo sapiens, ASPC1.
Source text: as §2

Where only a bound is given, the exact number is not on record here.

The term IC50 denotes the point on the concentration scale where inhibition reaches its midpoint. With `NCCC(O)(P(=O)(O)O)P(=O)(O)O` [pamidronate], in experiment [1], the IC50 was 65 µM.
`O=P(O)(O)C(O)(Cn1ccnc1)P(=O)(O)O` [zoledronate]: the IC50 in experiment [2] was over 20 µM; in experiment [3], 9 µM; in experiment [4], 3.1 µM; in experiment [5] it was over 20 µM; in experiment [6], over 60 µM; in experiment [7], over 60 µM.
